This note sets out measurements from publication PMC6355318 (Bioorganic & Medicinal Chemistry Letters, 2019).

In one series the target is PfPKG (Plasmodium falciparum, UniProt Q8I719). The series can be described thus: biochemical. The class given is biochemical. Conditions: for IC50: recombinant kinase, read-out: PfPKG pIC50 (converted); for LLE: LLE (pIC50 - mLogD).
The subject of another series is P. falciparum. The series can be described thus: blood stage hypoxanthine incorporation (HXI) cell-based assay. Conditions: Plasmodium falciparum, read-out: Pf HXI pEC50 (converted). From the text: [23] For full details on both biochemical assay and anti-malarial hypoxanthine incorporation (cell based) assay procedures, see reference 14.
Series [1] in a line: Measured logD (shake flask). The format is physicochemical. Conditions: octanol/PBS. On the procedure: LogD measurements were carried out using the shake flask method. […] The ratios of areas of the peaks were used to calculate the LogD in accordance with the equation:
LogD = Log10(Area-TL/Area BL)

For series [2] the following is noted: % remaining after 30 mins, mouse liver microsomes, 1 μM. A general note: Liver microsomes are a subcellular fraction often used to study metabolism.
Protocol: Microsomal turnover data was obtained using mouse liver microsomes (MLM) obtained from BD Biosciences. The compounds are pre-incubated at 37 °C for 5 minutes with the microsomes and the reaction was initiated by adding an equal volume of NADPH generating solution, also obtained from BD Biosciences. The final compound concentration in the incubation is 1 μM, and the microsomal protein concentration is 0.2 mg/mL. A sample is taken at t=0 and quenched with 2x volume of ice-cold methanol containing an internal standard reference compound (carbamazepine). The reaction is agitated at 37 °C for 30 minutes, when a further sample was taken and quenched in an identical fashion. The samples were centrifuged at 10000 rpm for 10 minutes and the supernatant taken for analysis in triplicate by LC-MS/MS (Agilent Technologies G6410 series, triple quadrupole with MM-ESI ion source) using optimised multiple reaction monitoring (MRM) scans and a standard column gradient on an Acquity UPLC BEH C8 1.7μm column, running acetonitrile and water with 0.05% acetic acid as the mobile phase. The % turnover is obtained by calculating the percentage difference of the peak areas, normalised to the internal standard, at t=0 and t=30. Verapamil is used as the standard compound for this assay.
For series [3] the following is noted: passive permeability, 5 hours at room temperature.
Another series in a line: Kinetic solubility. The format is physicochemical. Conditions: PBS pH 7.4 with 2% DMSO, PBS pH7.4, 98:2 PBS:DMSO, 90 minutes, target 200 μM.

Values after ≈ are worked out from the molar mass of the structure shown.

PfPKG, sequence (Q8I719 whole entry): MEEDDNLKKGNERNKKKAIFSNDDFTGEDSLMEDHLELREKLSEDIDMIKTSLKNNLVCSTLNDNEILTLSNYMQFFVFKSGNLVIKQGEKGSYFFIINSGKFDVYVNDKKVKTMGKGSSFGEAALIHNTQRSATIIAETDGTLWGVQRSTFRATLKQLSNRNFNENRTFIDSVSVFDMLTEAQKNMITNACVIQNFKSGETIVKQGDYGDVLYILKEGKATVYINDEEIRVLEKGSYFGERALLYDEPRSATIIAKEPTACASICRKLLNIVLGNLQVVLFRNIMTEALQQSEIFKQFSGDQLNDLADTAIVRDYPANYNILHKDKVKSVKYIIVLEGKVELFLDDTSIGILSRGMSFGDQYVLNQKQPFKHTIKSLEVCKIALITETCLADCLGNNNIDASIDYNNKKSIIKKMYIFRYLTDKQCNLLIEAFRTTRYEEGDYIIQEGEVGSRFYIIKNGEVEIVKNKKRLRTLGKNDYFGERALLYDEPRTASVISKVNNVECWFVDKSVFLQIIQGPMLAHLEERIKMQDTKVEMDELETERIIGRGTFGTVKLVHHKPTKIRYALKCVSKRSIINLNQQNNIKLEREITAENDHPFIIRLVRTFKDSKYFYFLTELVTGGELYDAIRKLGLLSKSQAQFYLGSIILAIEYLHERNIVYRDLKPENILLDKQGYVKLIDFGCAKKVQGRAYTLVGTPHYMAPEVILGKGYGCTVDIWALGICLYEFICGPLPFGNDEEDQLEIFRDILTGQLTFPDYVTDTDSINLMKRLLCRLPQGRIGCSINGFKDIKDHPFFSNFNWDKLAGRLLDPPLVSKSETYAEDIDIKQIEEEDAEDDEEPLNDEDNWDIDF
Protocol for Kinetic solubility: Each compound was run in triplicate on the same plate with two standard compounds, verapamil and ketoconazole, included per plate. The filtration plate was shaken at 500 rpm for 90 minutes and then filtered under vacuum. The filtrate was sampled and diluted with a DMSO:PBS mixture in a flat bottomed UV plate to give a solution with a composition of PBS:DMSO 80:20. […] The UV absorbance for these solutions was read across 230-400 nm at 1 nm intervals using a TECAN Safire II plate reader and a suitable UV wavelength chosen around the UV maximum of each compound.

Consider `CN(C)Cc1ccn2c(-c3ccnc(N)n3)c(-c3ccc(F)cc3)nc2c1` [Compound 2, reference compound], for which the IC50 on PfPKG was 2 nM. Also, the EC50 with P. falciparum was 363 nM.

Take `CN(C)Cc1ccn2c(-c3cc(N)ncn3)c(-c3ccc(F)cc3)nc2c1` [Compound 5]: at PfPKG, the LLE was determined as 4.7 and the IC50 was 87.1 nM.

For `CN(C)Cc1ccn2c(-c3ccncn3)c(-c3ccc(F)cc3)nc2c1` [Compound 7, reference compound], at PfPKG, the LLE is listed as 5.9 and the IC50 is 12 nM.

Consider `CN(C)Cc1ccn2c(-c3ccncc3)c(-c3ccc(F)cc3)nc2c1` [Compound 8], for which, on PfPKG, the LLE stood at 4.2 and the IC50 is 77.6 nM. At PfPKG (compared to 2), the “fold less biochemically active” value is around 40 fold.

Turning to `CN(C)Cc1ccn2c(-c3cn[nH]c3)c(-c3ccc(F)cc3)nc2c1` [Compound 9], at PfPKG, the LLE is reported as 5.1 and the IC50 is 120 nM.

In the case of `CN(C)Cc1ccn2c(-c3ccnc(N)c3)c(-c3ccc(F)cc3)nc2c1` [Compound 10], at PfPKG, the LLE came to 5.3 and the IC50 was 52.5 nM.

On to `CN(C)Cc1ccn2c(-c3ccnc(Nc4ccc(N5CCNCC5)cc4)c3)c(-c3ccc(F)cc3)nc2c1` [Compound 11], for which the IC50 at PfPKG is 257 nM.

For `CN(C)CCCNc1nccc(-c2c(-c3ccc(F)cc3)nc3ccccn23)n1` [Compound 14], the IC50 at PfPKG is 851 nM. The mLogD in series [1] stood at 1.8. This compound also came in with an MLM % rem in series [2] of 62%. The PAMPA in series [3] was found to be 8.2 ×10⁻⁶ cm/s.

Turning to `Fc1ccc(-c2nc3ccccn3c2-c2ccnc(NC3CCOCC3)n2)cc1` [Compound 15], at PfPKG, the IC50 is 132 nM. For the same compound, the mLogD in series [1] turned out to be 1.8. The MLM % rem in series [2] came out at 84%. Moreover, the PAMPA in series [3] amounted to 14.5 ×10⁻⁶ cm/s.

Consider `CN1CCN(c2ccc(Nc3nccc(-c4c(-c5ccc(F)cc5)nc5ccccn45)n3)cc2)CC1` [Compound 16], for which the EC50 in the series with P. falciparum is 115 nM. In series [1], this compound yielded a mLogD of 4.0. Also, the solubility (kinetic) (commonly solubility judged after dilution from a stock solution rather than from solid) at 1.5 h, 200 µM in the series “Kinetic solubility” stood at 9 µM (≈ 4.32 µg/mL). For the same compound, in series [2], the MLM % rem is 65%. Besides, in series [3], the PAMPA was 0 ×10⁻⁶ cm/s.

Take `CN1CCC(c2ccc(Nc3nccc(-c4c(-c5ccc(F)cc5)nc5ccccn45)n3)cc2)CC1` [Compound 17]: the IC50 at PfPKG is 5.01 nM. The EC50 in the series with P. falciparum is 158 nM. This compound had a mLogD in series [1] of 3.3. The compound also returned an MLM % rem in series [2] of 55%. The PAMPA in series [3] worked out at 0 ×10⁻⁶ cm/s.

For `CN1CCC(n2cc(Nc3nccc(-c4c(-c5ccc(F)cc5)nc5ccccn45)n3)cn2)CC1` [Compound 18], the IC50 on PfPKG is 100 nM. Also, the EC50 in the series on P. falciparum was 575 nM. This compound also came in with a mLogD in series [1] of 2.7. In the series “Kinetic solubility”, this compound registered a kinetic solubility at 1.5 h, 200 µM of 237 µM (≈ 111 µg/mL). Also, the MLM % rem in series [2] was 37%. In series [3], this compound yielded a PAMPA of 12.4 ×10⁻⁶ cm/s.

In the case of `CN(C)Cc1cc2nc(-c3ccc(F)cc3)c(-c3ccnc(N)n3)n2cn1` [Compound 19], the IC50 on PfPKG is 55 nM. Moreover, the EC50 in the series with P. falciparum is 3720 nM. In series [1], this compound gave a mLogD of 2.1. Further, the MLM % rem in series [2] was 59%. The same compound had a PAMPA in series [3] of 5.8 ×10⁻⁶ cm/s.

On to `CN(C)Cc1ccn2c(-c3ccnc(N)n3)c(-c3ccc(F)cc3)nc2n1` [Compound 20], for which the IC50 on PfPKG is 81.3 nM. Also, the EC50 with P. falciparum was 4070 nM. In series [1], this compound showed a mLogD of 2.1. The same compound displayed an MLM % rem in series [2] of 67%. For the same compound, the PAMPA in series [3] amounted to 11.8 ×10⁻⁶ cm/s.

As to `CN(C)Cc1ccc2c(c1)nc(-c1ccc(F)cc1)n2-c1ccnc(N)n1` [Compound 23], at PfPKG, the IC50 is 30.9 nM. Moreover, the mLogD in series [1] was found to be 1.2. The MLM % rem in series [2] is given as 78%. This compound also returned a PAMPA in series [3] of 3.2 ×10⁻⁶ cm/s.

On to `CN(C)CCNc1ccc2nc(-c3ccc(F)cc3)c(-c3ccnc(N)n3)n2n1` [Compound 26], for which the IC50 on PfPKG is 407 nM. This compound showed a mLogD in series [1] of 1.6. The same compound yielded an MLM % rem in series [2] of 68%. Besides, the PAMPA in series [3] came out at 1 ×10⁻⁶ cm/s.

`CN(C)Cc1ccc2c(-c3ccnc(N)n3)c(-c3ccc(F)cc3)nn2c1` [Compound 29]: the IC50 at PfPKG is 4.07 nM. In addition, the EC50 with P. falciparum is 513 nM. The compound further showed a mLogD in series [1] of 2.5. This compound yielded an MLM % rem in series [2] of 22%. For the same compound, the PAMPA in series [3] was found to be 18.5 ×10⁻⁶ cm/s.
